Data reported in publication PMC4849654, “A High-Throughput Cell-Based Screen Identified a 2-[(E)-2-Phenylvinyl]-8-Quinolinol Core Structure That Activates p53” (PLoS ONE, 2016).

Tests used:
p53 [1] = target: T1, p53 (Homo sapiens, UniProt P04637); test: Surface plasmon resonance (Biacore) binding to p53; settings: SPR, recombinant p53 amine linked to Biacore chip, compound 1 to 25 μM
T1 construct: purchased R&D systems
Excerpt: (§1) Free reactive amines were then blocked with ethanolamine.

E6 = E6 (Human papillomavirus type 16, UniProt P03126); settings: SPR
Protocol: p53 or E6 (R&D systems) were suspended in 10 mM sodium acetate pH 5.0 and amine linked to a Biacore CM5 chip (GE systems). Free reactive amines were then blocked with ethanolamine. Compound 4 was diluted in HBS P buffer (GE systems) at concentrations 1–30 μM and run over the chip. The association time was monitored for 300s and disassociation time for 1000 sec. After each run, the chip was regenerated using 10 mM glycine pH 3.0. The sensograms were fit to a one-ligand model to determine the Ka and Kd.

HCT116 cells = test: Cell viability, HCT116 (wtHCT116 and p53-null mutHCT116); assay type: cell-based
PUMA promoter = test: ChIP-qPCR of p53 binding to the PUMA promoter; assay type: cell-based; settings: 8 hrs
Protocol: Cells treated with the indicated compounds for 8 hrs, harvested and ChIP was carried using a Chromatin Immunoprecipitation Assay Kit (EMD Millipore). p53-DNA complexes were immunoprecipitated using a mouse monoclonal DO-1 antibody (Santa Cruz) and incubated overnight at 4°C. qPCR amplifications was performed using the primer sequences Puma forward 5’- […], reverse 5’- […].

E6AP = target: T2, E6AP (Homo sapiens, UniProt Q05086); test: Surface plasmon resonance binding to E6AP; settings: SPR, data not shown
T2 sequence (Q05086 1-875): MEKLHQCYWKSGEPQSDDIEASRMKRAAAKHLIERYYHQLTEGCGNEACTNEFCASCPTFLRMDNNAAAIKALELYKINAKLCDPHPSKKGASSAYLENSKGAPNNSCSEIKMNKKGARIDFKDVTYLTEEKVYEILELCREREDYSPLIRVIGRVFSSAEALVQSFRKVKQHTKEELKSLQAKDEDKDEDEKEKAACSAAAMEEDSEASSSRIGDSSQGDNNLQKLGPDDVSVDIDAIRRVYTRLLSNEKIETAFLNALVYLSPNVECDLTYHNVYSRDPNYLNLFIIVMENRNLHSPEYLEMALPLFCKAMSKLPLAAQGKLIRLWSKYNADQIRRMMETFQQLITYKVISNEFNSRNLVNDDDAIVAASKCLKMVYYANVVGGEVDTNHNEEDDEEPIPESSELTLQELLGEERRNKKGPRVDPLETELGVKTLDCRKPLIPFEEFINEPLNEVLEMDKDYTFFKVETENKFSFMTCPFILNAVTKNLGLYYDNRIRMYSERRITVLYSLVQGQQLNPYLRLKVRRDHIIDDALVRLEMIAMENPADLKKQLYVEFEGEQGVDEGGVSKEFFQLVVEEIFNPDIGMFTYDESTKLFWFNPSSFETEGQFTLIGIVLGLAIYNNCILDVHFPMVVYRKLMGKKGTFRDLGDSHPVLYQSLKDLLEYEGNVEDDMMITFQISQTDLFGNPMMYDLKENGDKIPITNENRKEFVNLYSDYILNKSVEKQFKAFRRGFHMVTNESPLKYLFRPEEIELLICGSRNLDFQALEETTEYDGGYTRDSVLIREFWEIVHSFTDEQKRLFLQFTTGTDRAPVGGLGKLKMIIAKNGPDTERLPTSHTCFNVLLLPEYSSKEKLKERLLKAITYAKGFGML
Excerpt: as §1

p73 = target: T3, p73 (Homo sapiens, UniProt O15350); test: p73 nuclear accumulation by Western analysis; assay type: cell-based; settings: mutHCT116 cells, 6h
T3 construct: endogenous in cells; host or cells: HCT116 (p53-null mutHCT116 and wtHCT116)
T3 sequence (O15350 1-636): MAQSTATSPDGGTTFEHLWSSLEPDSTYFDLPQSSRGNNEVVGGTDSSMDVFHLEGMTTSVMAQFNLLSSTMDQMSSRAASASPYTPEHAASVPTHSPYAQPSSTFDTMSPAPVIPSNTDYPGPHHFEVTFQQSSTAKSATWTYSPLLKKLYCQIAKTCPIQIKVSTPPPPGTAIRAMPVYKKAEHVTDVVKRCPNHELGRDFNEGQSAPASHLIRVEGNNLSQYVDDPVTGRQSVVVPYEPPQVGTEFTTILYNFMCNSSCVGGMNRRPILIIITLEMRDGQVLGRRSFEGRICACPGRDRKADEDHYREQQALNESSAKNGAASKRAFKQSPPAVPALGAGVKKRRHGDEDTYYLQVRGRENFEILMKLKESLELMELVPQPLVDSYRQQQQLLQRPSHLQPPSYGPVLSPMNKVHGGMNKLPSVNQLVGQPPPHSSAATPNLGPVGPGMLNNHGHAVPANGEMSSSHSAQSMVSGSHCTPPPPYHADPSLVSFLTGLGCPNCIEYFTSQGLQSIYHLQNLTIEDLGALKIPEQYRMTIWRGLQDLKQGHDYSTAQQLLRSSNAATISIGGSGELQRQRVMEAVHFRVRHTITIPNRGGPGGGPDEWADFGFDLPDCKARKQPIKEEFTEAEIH

[2] = system: proteasome chymotrypsin-like activity; test: Proteasome-Glo chymotrypsin-like activity; assay type: cell-based; settings: C33a cells, 2 hrs, 10 μM or 30 μM
C33a cells = test: Cell viability after p53 siRNA knockdown; assay type: cell-based; settings: p53 siRNA vs scrambled, 10 μM, 48 hrs
Protocol: C33a cells were transfected with 100 pmol siRNA for p53 (Dharmacon, L-003329-00-0005) or AllStar control (Qiagen) using lipofectamine2000 according to manufacturer’s instructions. The cells were incubated for 24 hrs and then split and incubated with 10 μM compounds. Cell viability was measured after 48 hours by Cell Titer Glo. Efficiency of knockdown was determined by quantitative RT-PCR using SYBR green.

p53 [3] = target: T4, p53 (Homo sapiens, UniProt P04637, R273C); test: p53 nuclear localization by immunofluorescence; assay type: cell-based; settings: C33a cells, 30 μM, 8 hrs
T4 construct: endogenous in cells; host or cells: C33a
Protocol: C33a cells were plated into chamber slides and treated with 30 μM of compounds 3 or, 4 for 4, or 8 hours. As a control, 30 μM cisplatin was used. The cells were fixed with 2.5% formaldehyde for 30 minutes, followed by permeabilization with 0.01% Triton X100 for 30 minutes. Cells were blocked with 5% goat serum for 30 minutes and stained overnight with anti-p53 (Santa Cruz, antibody FL-303) or anti-phospho-H2A.X (cell signaling) in 1% FCS in PBS at 4°. The following day, the cells were washed with PBS and incubated for 45 minutes with anti-rabbit-FITC and DAPI in 1% FCS in PBS. The cells were washed and mounted with ProLong Gold.

Sequence of E6 (P03126 whole entry): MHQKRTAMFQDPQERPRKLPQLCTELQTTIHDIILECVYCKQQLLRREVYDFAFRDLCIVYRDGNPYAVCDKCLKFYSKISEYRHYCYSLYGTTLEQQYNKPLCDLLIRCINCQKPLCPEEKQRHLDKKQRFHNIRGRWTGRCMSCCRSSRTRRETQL

COc1ccc(/C=C/c2ccc3cccc(O)c3n2)cc1OC [compound 4]
Kd (p53 [1]): 200 ± 52 nM
fold lesser affinity for E6 than for p53 (E6; E6 versus p53): 16 fold
Kd (E6; read-out: KD for E6, recombinant E6): 3200 ± 1000 nM
viability of mutHCT116 cells relative to wtHCT116 cells (HCT116 cells; 10 μM, percent viability mutHCT116 divided by wtHCT116): 2.5±0.5 fold
cell viability (Fig 5D) (HCT116 cells; HCT116, wild type p53): decreased viability
p53 binding to the PUMA promoter compared to controls (PUMA promoter; C33a cells): 38.9±2.4 fold
p53 binding to the PUMA promoter compared to controls (PUMA promoter; HeLa cells): 31.3±8.7 fold
affinity for E6AP (E6AP): did not have detectable affinity
p73 nuclear accumulation (p73): did not increase p73 nuclear accumulation
chymotrypsin-like proteasome activity [2]: did not significantly reduce
effect of p53 gene knockdown on C33a sensitivity to compound (C33a cells): significantly reversed
p53 nuclear accumulation, % of cell nuclei (p53 [3]): 79.5±12.7 % of cell nuclei
